Laboratory results reported in ChEMBL document CHEMBL1135558, “Chemical modification of reveromycin A and its biological activities” (Bioorg Med Chem Lett, 2002).

Key:
[1] = target: T1, Isoleucyl-tRNA synthetase (Rattus norvegicus, UniProt O35880); test: Inhibitory concentration against Isoleucyl-tRNA synthetase (IleRS) activity
T1 sequence (O35880 whole entry): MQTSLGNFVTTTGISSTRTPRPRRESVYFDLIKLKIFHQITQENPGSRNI

[2] = system: NRK; test: Morphological reversion of src-transformed-NRK cells at 5 ug/mL; type: functional, Rattus norvegicus
[3] = system: NRK; test: In vitro inhibition of protein synthesis in srcts-NRK cell at 1 ug/mL; type: functional; conditions: Rattus norvegicus
[4] = system: NRK; test: Morphological reversion of src-transformed-NRK cells at 0.1 ug/mL; type: functional, Rattus norvegicus
[5] = system: NRK; test: Morphological reversion of src-transformed-NRK cells at 10 ug/mL; type: functional, Rattus norvegicus
[6] = system: NRK; test: Morphological reversion of srcts-NRK cells concentration at 100 ug/mL; type: functional, Rattus norvegicus
[7] = system: NRK; test: Morphological reversion of src-transformed-NRK cells at 2 ug/mL; type: functional, Rattus norvegicus
[8] = system: NRK; test: Morphological reversion of src-transformed-NRK cells at 1 ug/mL; type: functional, Rattus norvegicus
[9] = system: NRK; test: Morphological reversion of src-transformed-NRK cells at 20 ug/mL; type: functional, Rattus norvegicus
[10] = system: NRK; test: Morphological reversion of src-transformed-NRK cells at 50 ug/mL; type: functional
[11] = system: NRK; test: In vitro inhibition of protein synthesis in src-transformed-NRK cell at 1 ug/mL; type: functional; conditions: Rattus norvegicus
[12] = system: NRK; test: Morphological reversion of src-transformed-NRK cells at 5 ug/mL; 20-50; type: functional, Rattus norvegicus

| Structure (SMILES) | IC50 [1] | Reversion [2] | inhibition at 1 µg/mL [3] | Reversion [4] | Reversion [5] | Reversion [6] | Reversion [7] | Reversion [8] | Reversion [9] | Reversion [10] | inhibition at 1 µg/mL [11] | Reversion [12] |
| --- | --- | --- | --- | --- | --- | --- | --- | --- | --- | --- | --- | --- |
| CCCC[C@@]1(OC(=O)CCC(=O)OC)CC[C@]2(CC[C@H](C)[C@@H](C/C=C(C)/C=C/[C@H](O)[C@@H](C)/C=C/C(=O)OC)O2)O[C@H]1/C=C/C(C)=C/C(=O)O | 1450 nM | >80% | < 20% | 20% | >80% | >80% | >80% | >80% |  |  |  |  |
| CCCC[C@@]1(OC(=O)CCC(=O)O)CC[C@]2(CC[C@H](C)[C@@H](CCC(C)CC[C@H](O)[C@@H](C)CCC(=O)O)O2)O[C@H]1CCC(C)CC(=O)O (stereo partly drawn) | < 1490 nM |  | < 20% |  |  | <20% |  |  |  |  |  |  |
| CCCC[C@]1([C@H](/C=C/C(C)=C/C(=O)O)OC)CC[C@]2(CC[C@H](C)[C@@H](C/C=C(C)/C=C/[C@H](O)[C@@H](C)/C=C/C(=O)O)O2)O1 | < 1740 nM |  | < 20% |  |  | <20% |  |  |  |  |  |  |
| CCCC[C@@]1(OC)CC[C@]2(CC[C@H](C)[C@@H](C/C=C(C)/C=C/[C@H](O)[C@@H](C)/C=C/C(=O)O)O2)O[C@H]1/C=C/C(C)=C/C(=O)O | 44.4 nM |  | > 80% |  | 50% | >80% |  |  | 50% | >80% |  |  |
| CCCC[C@@]1(OC(=O)CCC(=O)O)CC[C@]2(CC[C@H](C)[C@@H](C/C=C(C)/C=C/[C@H](OC(C)=O)[C@@H](C)/C=C/C(=O)O)O2)O[C@H]1/C=C/C(C)=C/C(=O)O | < 1420 nM | <20% |  |  | 50% | >80% |  |  | >80% | >80% | < 20% |  |
| CCCC[C@@]1(OCSC)CC[C@]2(CC[C@H](C)[C@@H](C/C=C(C)/C=C/[C@H](O)[C@@H](C)/C=C/C(=O)O)O2)O[C@H]1/C=C/C(C)=C/C(=O)O | 353 nM |  | > 80% |  | <20% | >80% |  |  |  | 50% |  |  |
| CCCC[C@@]1(OC(=O)CCC(=O)O)CC[C@]2(CC[C@H](C)[C@@H](C/C=C(C)/C=C/[C@H](OC)[C@@H](C)/C=C/C(=O)O)O2)O[C@H]1/C=C/C(C)=C/C(=O)O | 245 nM |  | 50% |  |  | <20% |  |  |  |  |  |  |
| CCCC[C@@]1(OC(=O)CCC(=O)O)CC[C@]2(CC[C@H](C)[C@@H](C/C=C(C)/C=C/[C@H](O)[C@@H](C)/C=C/C(=O)O)O2)O[C@H]1/C=C/C(C)=C/C(=O)O [REVEROMYCIN A] | 1.97 nM |  | > 80% |  | 50% | >80% | <20% |  | >80% | >80% |  | 20% |
| CCCC[C@@]1(OC(=O)CCC(=O)OC)CC[C@]2(CC[C@H](C)[C@@H](C/C=C(C)/C=C/[C@H](O)[C@@H](C)/C=C/C(=O)OC)O2)O[C@H]1/C=C/C(C)=C/C(=O)OC | < 1420 nM |  | < 20% |  |  | <20% |  |  |  |  |  |  |
| CCCC[C@@]1(OCSC)CC[C@]2(CC[C@H](C)[C@@H](C/C=C(C)/C=C/[C@H](O)[C@@H](C)/C=C/C(=O)O)O2)O[C@H]1/C=C/C(C)=C/C(=O)OC | < 1580 nM |  | < 20% |  |  | <20% |  |  |  |  |  |  |
| CCCC[C@]1([C@H](/C=C/C(C)=C/C(=O)O)OC(=O)CCC(=O)O)CC[C@]2(CC[C@H](C)[C@@H](C/C=C(C)/C=C/[C@H](O)[C@@H](C)/C=C/C(=O)O)O2)O1 [REVEROMYCIN B] | < 1510 nM |  | < 20% |  |  | <20% |  |  |  |  |  |  |
| CCCC[C@]1([C@@H](O)/C=C/C(C)=C/C(=O)O)CC[C@]2(CC[C@H](C)[C@@H](C/C=C(C)/C=C/[C@H](O)[C@@H](C)/C=C/C(=O)O)O2)O1 | < 1780 nM |  | < 20% |  |  | <20% |  |  |  |  |  |  |
| CCCC[C@@]1(O)CC[C@]2(CC[C@H](C)[C@@H](C/C=C(C)/C=C/[C@H](O)[C@@H](C)/C=C/C(=O)O)O2)O[C@H]1/C=C/C(C)=C/C(=O)O | 74.4 nM |  | > 80% |  |  | <20% |  |  |  |  |  |  |
